# According to patent US6710051B1, “Screening method” (Klaus Trier APS, priority 1997, dated 2004):
# Like-named read-outs stand apart in the source and are kept apart here. Marks after values point to notes of the source that are not given here.
# Tests used:
# sclera [1] = experiment: Content of collagen specific amino acids in rabbit sclera after long term treatment (HPLC); format: in vivo; parameters: Hydroxylysine Decr. compared to the control / Hydroxyproline Inc. compared to the control / Proline Inc. compared to the control: concentration or dose not given beside the values; conditions: for Hydroxylysine content / Hydroxyproline content / Proline content: dried defatted weight
# From the text: (§1) Test animal: Charles River Deutschland Chinchilla Bastard female rabbits.
# (§2) Number of animals: 6 test animals and 6 control animals
# (§3) Age: approximately 8 weeks at the commencement of the test.
# (§4) Weight: 1.4-1.9 kg at the commencement of the test.
# (§5) Cages: The animals live in identical cages made of stainless steel (Scanbur), length 1 m, depth 0.52 m, height 0.5 m.
# (§6) Amount of food: Increasing from 75 g per day at the commencement of the test up to 130 g after three months.
# (§7) Experimental drinking water 1 contained theophyllin in a dose equivalent of 27 mg increasing to 63 mg (added as theophyllin and ethylendiamin in a dose of 33 to 77 mg) daily.
# (§8) Experimental drinking water 2 contained fluoxetine (Fontex, Lilly) in a dose equivalent of 2 mg increasing to 5 mg daily.
# (§9) Experimental diet 3 was added 7-methylxanthine 500 mg per kg Stanrab standard diet equivalent of a daily 7-methylxanthine dose of […] per day.
# (§10) Experimental diet 4 was added theobromine (3,7-dimethylxanthine) 500 mg per kg Stanrab standard diet equivalent of a daily theobromine dose of […] per day.
# (§11) Experimental diet 5 was added acetazolamide 500 mg per kg Stanrab standard diet equivalent of a daily acetazolamide dose of […] per day.
# (§12) Collection of sample: Sclera biopsies are taken for analysis for proteoglycane content, distribution between the individual glycosaminoglycanes and the content of collagen specific amino acids. Four tests from each animal: Two samples from the front, 5×10 mm along limbus (without cornea), and two samples from the back, punch 10 mm corresponding to the center of the retina. Furthermore, tests are taken for electron microscopy (EM) from two animals in each group.
# Samples for analysis for content of collagen specific amino acids are frozen down immediately. The amino acid content is determined by HPLC-chromatography.
# The dried tissue with constant weight is minced into very fine particles with a pair of scissors, approximately 20 per piece of tissue. The small flakes from each original piece of tissue ate divided into two equally sized portions, one of which is employed for hydrolysis and the other one is kept for reference. The constant dry weight of each portion is known.
# From each resolubilized hydrolysate 3 aliquots of each 8 microliters and 3 aliquots of 40 μl are taken and transferred to separate polypropylene tubes in which 20 microliters of a solution of internal standard substances citrulline and 2 aminobutyric acid were added where the further method takes place.
# The taken aliquots from hydrolysate are dried in a vacuum exsiccator at 35° C. over night and subsequently submitted to derivatization with phenylisothiocyanate.
# The resulting phenylisothiocarbamates are transferred to the HPLC instrument for separation and quantification. A new set of calibration curves is established, 1 curve for each of the 19 amino acids, prior to the analysis of the samples from one investigation.
# The concentration range of standard samples exceed the ranges of amino acid concentrations in the unknowns. Hydroxyproline and proline are quantitated from the 8 microliter aliquots, and hydroxylysine is quantitated from the 40 microliter aliquots.
# sclera [2] = experiment: Content of proteoglycanes in rabbit sclera after long term treatment (alcian blue method); format: in vivo; parameters: Proteoglycanes Decrease compared to the control, anterior sclera / Proteoglycanes Increase compared to the control, anterior sclera / Proteoglycanes Increase compared to the control, posterior sclera / Effect on proteoglycan content of posterior sclera in % compared to control: concentration or dose not given beside the values; conditions: for Effect on proteoglycan content of posterior sclera in % compared to control: rabbit, Examples 2 and 4
# Protocol: as §1, §2, §3, §4
# Lightness/Darkness cycle: 12/12 hours.
# as §5
# Food: Stanrab standard diet from Special Diet Services, P.O. Box 705, Witham Essex CM8 3AD, UK (further details, see Table A).
# as §6, §7, §8
# Experimental diet 2 was added 4.5 g L-cystine per kg Stanrab standard diet equivalent of a daily L-cystine dose of 338 mg increasing to 585 mg per day. With respect to the supplement of L-cystine, the normal intake per day of the standard diet is 218 mg increasing to 377 mg L-cystine.
# as §9, §10, §11
# Experimental diet 6 was added 4.5 g L-ornithine per kg Stanrab standard diet equivalent of a daily L-ornithine dose of 338 mg increasing to 585 mg per day.
# as §12
# Analyses: Samples for proteoglycane analysis are frozen down immediately. The samples are analyzed by Wieslab AB, IDEON, S-223 70 Lund, Sweden, by means of a method which has been described by Björnsson, S., Analytical Biochemistry 210, 282-291 (1993). The method comprises extraction by 20 microliters of 4 M guanidine-HCl, 50 Mm sodium acetate per mg wet weight over night by room temperatures. The extracts are centrifuged in order to remove debris. 20 microliters of supernatant are reduced 1/10 in extraction buffer and 20 microliters of reduced supernatant are mixed with 10 microliters of reagent 1 (see Björnsson, S., Analytical biochemistry 210, 282-291 (1993)) on a shaking table for 15 minutes. 200 microliters of reagent 2 are added and the tests are incubated for 60 minutes in order to precipitate the proteoglycanes. The proteoglycane/alcian blue precipitate is transferred to 96-wells MillBlotD apparatus and washed with 2×200 microliters of 40% DMSO, 0.05 M of MgCl2. The colour intensity of the wells are quantitated by microtech E3 scanner and Scan Analysis software (Biosoft, Cambridge, U.K.). Chrondroitine-6-sulphate (Sigma C4384) is used as the calibrator. All samples are analyzed in duplicate.
# The results of longterm treatment with each of the 8 substances specified above are shown in Example 2 (treatment for 12 weeks) and Example 4 (treatment for 10 weeks).
# [3] = humans; cited from earlier work
# [4] = rabbits; cited from earlier work
# [5] = system: retinal pigment epithelium; experiment: c-wave at ERG and standing potential of the eye; conditions: in vivo
# From the text: Registration of c-Wave at ERG in animals (e.g. rabbits) is a well-developed examination technique (Skoog, K. O., Nilsson, S. E. G., Acta Ophthalmol. (Kph), 52: 759-773 (1974), Jarkman, S., Skoog, K. O., Doc. Ophthalmol., 60: 383-392 (1985)). Also intraoccular administration of test substances for test animals is also a well-described-technique (Textorius O., Doc. Ophthalmol., 63:349-358 (1986)). Alternatively, test substances can be administered intravenously (Jarkman, S., Doc. Ophthalmol. 60: 375-382 (1985)).
# eye [6] = conditions: animal, abnormal postnatal growth of the eye; cited from earlier work
# eye [7] = conditions: test animals exposed to visual deprivation; cited from earlier work
# [8] = anterior sclera, 3 months treatment
# [9] = posterior sclera, 3 months treatment
compound,measurement,setting,value
"Cn1c(=O)c2c(ncn2C)n(C)c1=O [Caffeine, 1,3,7-Trimethylxanthine]",Hydroxyproline Inc. compared to the control,sclera [1]; [8],14%
same,Proline Inc. compared to the control,sclera [1]; [8],12%
same,Hydroxylysine content,sclera [1]; [8],39 +/− 19 nanomol/mg tissue
same,Hydroxyproline content,sclera [1]; [8],688 +/− 36* nanomol/mg tissue
same,Proline content,sclera [1]; [8],993 +/− 18* nanomol/mg tissue
same,Hydroxylysine Decr. compared to the control,sclera [1]; [9],14%
same,Hydroxyproline Inc. compared to the control,sclera [1]; [9],22%
same,Proline Inc. compared to the control,sclera [1]; [9],17%
same,Hydroxylysine content,sclera [1]; [9],37 +/− 16 nanomol/mg tissue
same,Hydroxyproline content,sclera [1]; [9],668 +/− 61 nanomol/mg tissue
same,Proline content,sclera [1]; [9],947 +/− 38 nanomol/mg tissue
same,"Proteoglycanes Increase compared to the control, anterior sclera",sclera [2]; 3 months treatment,19%
same,"Proteoglycanes Increase compared to the control, posterior sclera",sclera [2]; 3 months treatment,19%
same,Effect on proteoglycan content of posterior sclera in % compared to control,sclera [2],119%
same,"Content of proteoglycanes, anterior sclera","sclera [2]; wet weight, 3 months treatment",3.2 +/− 0.8 μg PG/mg tissue
same,"Content of proteoglycanes, posterior sclera","sclera [2]; wet weight, 3 months treatment",3.2 +/− 0.5 μg PG/mg tissue
same,half-life period,[3],approximately 5 hours
same,half-life period,[4],approximately 1 hour
"Cn1c(=O)c2[nH]cnc2n(C)c1=O [Theophylline, 1,3-Dimethylxanthine]",content of hydroxylysine (in words),sclera [1]; comment to the examples,reduces
same,content of the collagen specific amino acids hydroxyproline and proline (in words),sclera [1]; comment to the examples,increase
same,content of proteoglycanes in sclera (in words),sclera [2]; comment to the examples,reduces
same,Effect on proteoglycan content of posterior sclera in % compared to control,sclera [2],100%
same,c-wave at ERG,[5],reduces
same,standing potential of the eye,[5],reduces
CN1CCN(CC(=O)N2c3ccccc3C(=O)Nc3cccnc32)CC1 [pirenzepine],axial longitudinal growth,eye [6],inhibited
CN1CCc2cccc3c2[C@H]1Cc1ccc(O)c(O)c1-3 [apomorphine],development of myopia,eye [7],inhibits
